target: T1, TrkA (Homo sapiens, UniProt P04629); experiment: TrkA kinase inhibition, HTRF assay; type: biochemical; settings: LCK peptide substrate 125 nM, TrkA 2-10 nM pre-incubated with ATP 200 μM
T1 construct: purchased Invitrogen PV3144
Procedure, shortened: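 TrkA (2-10 nM) preactivated 20 min with 200 μM ATP in HEPES pH 7.4 with Mg2+/Mn2+, then compound for 10 min, then 125 nM biotinylated LCK-peptide for 1 h at ambient temperature. HTRF 665/620 ratio read; IC50 fitted from initial-rate percent inhibition.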

T1 sequence (P04629 33-796): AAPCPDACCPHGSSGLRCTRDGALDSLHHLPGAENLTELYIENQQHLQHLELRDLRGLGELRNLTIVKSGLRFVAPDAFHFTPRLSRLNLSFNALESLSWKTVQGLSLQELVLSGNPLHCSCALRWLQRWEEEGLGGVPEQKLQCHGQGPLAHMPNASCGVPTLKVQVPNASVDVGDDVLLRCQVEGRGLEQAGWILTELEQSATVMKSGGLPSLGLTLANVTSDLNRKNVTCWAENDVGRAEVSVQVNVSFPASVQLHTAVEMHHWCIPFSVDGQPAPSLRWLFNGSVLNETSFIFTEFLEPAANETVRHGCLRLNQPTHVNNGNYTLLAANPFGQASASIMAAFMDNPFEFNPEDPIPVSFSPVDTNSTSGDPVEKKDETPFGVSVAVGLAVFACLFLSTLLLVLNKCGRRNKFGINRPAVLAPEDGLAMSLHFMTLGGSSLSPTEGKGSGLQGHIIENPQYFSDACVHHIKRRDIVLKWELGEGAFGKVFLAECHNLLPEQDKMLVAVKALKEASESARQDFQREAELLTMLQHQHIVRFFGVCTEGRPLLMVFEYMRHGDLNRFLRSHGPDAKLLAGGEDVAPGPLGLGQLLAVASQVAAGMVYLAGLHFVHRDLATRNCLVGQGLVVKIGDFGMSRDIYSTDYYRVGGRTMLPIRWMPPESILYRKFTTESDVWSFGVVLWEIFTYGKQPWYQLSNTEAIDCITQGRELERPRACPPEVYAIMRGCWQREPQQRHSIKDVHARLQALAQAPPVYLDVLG

SMILES | IC50 [µM]
CC(=O)c1ccc(-c2cc(OC3CCOCC3)c3c(N)n[nH]c3c2)cc1N1CCN(CCC(C)(C)C)CC1 [Example 18, 1-{4-[3-amino-4-(tetrahydro-2H-pyran-4-yloxy)-1H-indazol-6-yl]-2-[4-(3,3-dimethylbutyl)piperazin-1-yl]phenyl}ethanone] | 0.0364
NC(=O)c1ccc(-c2cc(O[C@H]3CCOC3)c3c(N)n[nH]c3c2)cc1N1CCN(C2CC2)CC1 [Example 65, 4-{3-amino-4-[(3S)-tetrahydrofuran-3-yloxy]-1H-indazol-6-yl}-2-(4-cyclopropylpiperazin-1-yl)benzamide] | 0.173
CNC(=O)c1ccc(-c2cc(O[C@@H](C)C(F)(F)F)c3c(N)n[nH]c3c2)cc1N1CCN(C2CCCC2)CC1 [Example 44, 4-(3-amino-4-{[(2S)-1,1,1-trifluoropropan-2-yl]oxy}-1H-indazol-6-yl)-2-(4-cyclopentylpiperazin-1-yl)-N-methylbenzamide] | 0.0253
CNC(=O)c1ccc(-c2cc(O[C@H](C)C(F)(F)F)c3c(N)n[nH]c3c2)cc1N1CCN(C(=O)C(C)(C)C)CC1 [Example 54, 4-(3-amino-4-{[(2R)-1,1,1-trifluoropropan-2-yl]oxy}-1H-indazol-6-yl)-2-[4-(2,2-dimethylpropanoyl)piperazin-1-yl]-N-methylbenzamide] | 0.101
NC(=O)c1ccc(-c2cc(OC3CCCC3)c3c(N)n[nH]c3c2)cc1N1CCN(CC(=O)N2CCCCC2)CC1 [Example 107, 4-[3-amino-4-(cyclopentyloxy)-1H-indazol-6-yl]-2-{4-[2-oxo-2-(piperidin-1-yl)ethyl]piperazin-1-yl}benzamide] | 0.044
CC(=O)N1CCN(c2cc(-c3cc(OC4CCOCC4)c4c(N)n[nH]c4c3)ccc2C(N)=O)CC1 [Example 4, 2-(4-acetylpiperazin-1-yl)-4-[3-amino-4-(tetrahydro-2H-pyran-4-yloxy)-1H-indazol-6-yl]benzamide] | 0.147
CNC(=O)c1ccc(-c2cc(O[C@H](C)C(F)(F)F)c3c(N)n[nH]c3c2)cc1N1CCN(C2CCC2)CC1 [Example 50, 4-(3-amino-4-{[(2R)-1,1,1-trifluoropropan-2-yl]oxy}-1H-indazol-6-yl)-2-(4-cyclobutylpiperazin-1-yl)-N-methylbenzamide] | 0.53
CN1CCC(Oc2cc(-c3ccc(C(=O)NC4CC4)c(N4CCN(c5ccccc5)CC4)c3)cc3[nH]nc(N)c23)CC1 [Example 62, 4-{3-amino-4-[(1-methylpiperidin-4-yl)oxy]-1H-indazol-6-yl}-N-cyclopropyl-2-(4-phenylpiperazin-1-yl)benzamide] | 0.0671
CCCOC(=O)N1CCN(c2cc(-c3cc(OC4CCOCC4)c4c(C)n[nH]c4c3)ccc2C(=O)NC)CC1 [Example 135, propyl 4-{2-(methylcarbamoyl)-5-[3-methyl-4-(tetrahydro-2H-pyran-4-yloxy)-1H-indazol-6-yl]phenyl}piperazine-1-carboxylate] | 0.00829
CC(Oc1cc(-c2ccc(C(N)=O)c(N3CCN(c4ccncc4)CC3)c2)cc2[nH]nc(N)c12)C(F)(F)F (stereo not shown) [Example 98, 4-{3-amino-4-[(1,1,1-trifluoropropan-2-yl)oxy]-1H-indazol-6-yl}-2-[4-(pyridin-4-yl)piperazin-1-yl]benzamide] | 0.539
CNC(=O)c1ccc(-c2cc(OC3CCOCC3)c3c(C)n[nH]c3c2)cc1N1CCN(C(=O)OCC(C)(C)C)CC1 [Example 137, 2,2-dimethylpropyl 4-{2-(methylcarbamoyl)-5-[3-methyl-4-(tetrahydro-2H-pyran-4-yloxy)-1H-indazol-6-yl]phenyl}piperazine-1-carboxylate] | 0.0573
CNC(=O)c1ccc(-c2cc(OC3CCOCC3)c3c(N)n[nH]c3c2)cc1N1CCN(CC(F)(F)C(F)(F)F)CC1 [Example 170, 4-[3-amino-4-(tetrahydro-2H-pyran-4-yloxy)-1H-indazol-6-yl]-N-methyl-2-[4-(2,2,3,3,3-pentafluoropropyl)piperazin-1-yl]benzamide] | 0.0178
CC(=O)Nc1ccc(-c2cc(OC3CCOCC3)c3c(C)n[nH]c3c2)cc1N1CCN(C(=O)OC(C)C)CC1 [Example 146, isopropyl 4-{2-acetamido-5-[3-methyl-4-(tetrahydro-2H-pyran-4-yloxy)-1H-indazol-6-yl]phenyl}piperazine-1-carboxylate] | 0.00443
CNC(=O)c1ccc(-c2cc(OC3CCOCC3)c3c(C)n[nH]c3c2)cc1N1CCN(C(=O)CC2CC2)CC1 [Example 164, 2-[4-(cyclopropylacetyl)piperazin-1-yl]-N-methyl-4-[3-methyl-4-(tetrahydro-2H-pyran-4-yloxy)-1H-indazol-6-yl]benzamide] | 0.00862
CNC(=O)c1ccc(-c2cc(OC(C)C(F)(F)F)c3c(N)n[nH]c3c2)cc1N1CCN(c2ccccc2)CC1 (stereo not shown) [Example 33, 4-{3-amino-4-[(1,1,1-trifluoropropan-2-yl)oxy]-1H-indazol-6-yl}-N-methyl-2-(4-phenylpiperazin-1-yl)benzamide] | 0.028
CNC(=O)c1ccc(-c2cc(OC3CCOCC3)c3c(N)n[nH]c3c2)cc1N1CCN(CC(F)(F)C(F)F)CC1 [Example 167, 4-[3-amino-4-(tetrahydro-2H-pyran-4-yloxy)-1H-indazol-6-yl]-N-methyl-2-[4-(2,2,3,3-tetrafluoropropyl)piperazin-1-yl]benzamide] | 0.0115
CC(=O)c1ccc(-c2cc(OC3CCOCC3)c3c(N)n[nH]c3c2)cc1N1CCN(c2cccnc2)CC1 [Example 16, 1-{4-[3-amino-4-(tetrahydro-2H-pyran-4-yloxy)-1H-indazol-6-yl]-2-[4-(pyridin-3-yl)piperazin-1-yl]phenyl}ethanone] | 0.0296
CNC(=O)c1ccc(-c2cc(O[C@H](C)C(F)(F)F)c3c(N)n[nH]c3c2)cc1OCCOc1ccccc1 [Example 106, 4-(3-amino-4-{[(2R)-1,1,1-trifluoropropan-2-yl]oxy}-1H-indazol-6-yl)-N-methyl-2-(2-phenoxyethoxy)benzamide] | 0.00267
CNC(=O)c1ccc(-c2cc(O[C@H](C)C(F)(F)F)c3c(N)n[nH]c3c2)cc1N1CCN(c2cnccn2)CC1 [Example 55, 4-(3-amino-4-{[(2R)-1,1,1-trifluoropropan-2-yl]oxy}-1H-indazol-6-yl)-N-methyl-2-[4-(pyrazin-2-yl)piperazin-1-yl]benzamide] | 0.121
CNC(=O)c1ccc(-c2cc(OC3CCCC3)c3c(C)n[nH]c3c2)cc1N1CCN(C(=O)OCc2ccccc2)CC1 [Example 129, benzyl 4-{5-[4-(cyclopentyloxy)-3-methyl-1H-indazol-6-yl]-2-(methylcarbamoyl)phenyl}piperazine-1-carboxylate] | 0.0508
Cc1n[nH]c2cc(-c3ccc(C(=O)NC4CCC4)c(N4CCN(C5CCCCC5)CC4)c3)cc(OC3CCOCC3)c12 [Example 118, N-cyclobutyl-2-(4-cyclohexylpiperazin-1-yl)-4-[3-methyl-4-(tetrahydro-2H-pyran-4-yloxy)-1H-indazol-6-yl]benzamide] | 0.0398
CNC(=O)c1ccc(-c2cc(OC3CCOCC3)c3c(C)n[nH]c3c2)cc1N1CCN(C(=O)OCC(F)(F)F)CC1 [Example 136, 2,2,2-trifluoroethyl 4-{2-(methylcarbamoyl)-5-[3-methyl-4-(tetrahydro-2H-pyran-4-yloxy)-1H-indazol-6-yl]phenyl}piperazine-1-carboxylate] | 0.0181

Reference: patent US20160376240A1, “6 Phenyl or 6 Pyridin 3 YL Indazole Derivatives and Methods of Use” (ABBVIE INC., priority 2014, published 2016)
